Measured values from the supplement of paper PMC11208160.

Experiment: recombinant UMI read abundance after kanamycin selection (control-corrected) (log10(CPM+1)); higher = more efficient recombination; extreme values may be limits of the assay; sequences stand for … in AGTGCAGAGAAAATCGGCCAGTTTTCTCTGCCTGCAGTCCGCATGCCGTGGGACCCCTTGGGTTCTAACCTGTTGCCTAGATTTATGCAGCGGACTGCCTTTCTCCCAAAGTGATAAACCGG…AGGTTGGTTTCACT; site = the 11-nt donor
Experimental: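 Pooled E. coli donor-specificity screen for the IS621 bridge recombinase. Each library member carries a reprogrammed 11-nt donor and a full-length LE bridge RNA expressed in cis from the natural promoter, with a paired donor-binding loop (8-nt LDG + 4-nt RDG) and a target-binding loop fixed to T5. It is co-electroporated with a T5 target plasmid; recombinase is induced with 0.07 mM IPTG and recombinants are selected on kanamycin. UMIs are counted as CPM, averaged over two biological replicates and corrected by the unselected control. Molecule = full bridge RNA written as DNA, built from the T5 scaffold: LDG = donor specificity nt 1-8, RDG = reverse complement of nt 8-11.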
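Also: IS621 bridge recombinase in Escherichia coli cells against a fixed T5 target plasmid.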

| Sequence | recombinant UMI read abundance (log10) |
| --- | --- |
| AATCTCACATGGACCGGTTTTCCCGGTAATCCGTATTTGGA (site AATCTCACTTC) | 0.341 |
| AATCTGGCATGGACCGGTTTTCCCGGTAATCCGTATTTGTA (site AATCTGGCTTA) | 0.472 |
| AATGAGACATGGACCGGTTTTCCCGGTAATCCGTATTTGGT (site AATGAGACTAC) | 1.58 |
| AATGAGACATGGACCGGTTTTCCCGGTAATCCGTATTTGGT (site ACTGAGACTAC) | 0.724 |
| AATGAGACATGGACCGGTTTTCCCGGTAATCCGTATTTGGT (site AGTGAGACTAC) | 1.41 |
| AATGAGACATGGACCGGTTTTCCCGGTAATCCGTATTTGGT (site ATTGAGACTAC) | 0.678 |
| AATGATGCATGGACCGGTTTTCCCGGTAATCCGTATTTGGA (site AATAATGCTTC) | 1.08 |
| AATGATGCATGGACCGGTTTTCCCGGTAATCCGTATTTGGA (site AATCATGCTTC) | 1.01 |
| AATGATGCATGGACCGGTTTTCCCGGTAATCCGTATTTGGA (site AATGATGCTTC) | 1.06 |
| AATGATGCATGGACCGGTTTTCCCGGTAATCCGTATTTGGA (site AATTATGCTTC) | 0.561 |
| AATGCAACATGGACCGGTTTTCCCGGTAATCCGTATTTGCT (site AATGAAACTAG) | 0 |
| AATGCAACATGGACCGGTTTTCCCGGTAATCCGTATTTGCT (site AATGCAACTAG) | 0.00461 |
| AATGCAACATGGACCGGTTTTCCCGGTAATCCGTATTTGCT (site AATGGAACTAG) | 0 |
| AATGCAACATGGACCGGTTTTCCCGGTAATCCGTATTTGCT (site AATGTAACTAG) | 0 |
| AATGCAGCATGGACCGGTTTTCCCGGTAATCCGTATTTGGG (site AATGCAGCTCC) | 0.00829 |
| AATGCGTCATGGACCGGTTTTCCCGGTAATCCGTATTTGAC (site AATGAGTCTGT) | 0 |
| AATGCGTCATGGACCGGTTTTCCCGGTAATCCGTATTTGAC (site AATGCGTCTGT) | 2.03 |
| AATGCGTCATGGACCGGTTTTCCCGGTAATCCGTATTTGAC (site AATGGGTCTGT) | 0 |

| Sequence | recombinant UMI read abundance (log10) |
| --- | --- |
| AATGCGTCATGGACCGGTTTTCCCGGTAATCCGTATTTGAC (site AATGTGTCTGT) | 0.269 |
| AATGGGTCATGGACCGGTTTTCCCGGTAATCCGTATTTGAC (site AATGAGTCTGT) | 0.146 |
| AATGGGTCATGGACCGGTTTTCCCGGTAATCCGTATTTGAC (site AATGCGTCTGT) | 0.826 |
| AATGGGTCATGGACCGGTTTTCCCGGTAATCCGTATTTGAC (site AATGGGTCTGT) | 2.68 |
| AATGGGTCATGGACCGGTTTTCCCGGTAATCCGTATTTGAC (site AATGTGTCTGT) | 0 |
| AATGGTGCATGGACCGGTTTTCCCGGTAATCCGTATTTGGT (site AATGGTGCTAC) | 1.04 |
| AATGTAACATGGACCGGTTTTCCCGGTAATCCGTATTTGCG (site AATGTAACTAG) | 0 |
| AATGTAACATGGACCGGTTTTCCCGGTAATCCGTATTTGCG (site AATGTAACTCG) | 1.48 |
| AATGTAACATGGACCGGTTTTCCCGGTAATCCGTATTTGCG (site AATGTAACTGG) | 0 |
| AATGTAACATGGACCGGTTTTCCCGGTAATCCGTATTTGCG (site AATGTAACTTG) | 0.00267 |
| AATGTAACATGGACCGGTTTTCCCGGTAATCCGTATTTGTT (site AATGTAACTAA) | 0.321 |
| AATGTAACATGGACCGGTTTTCCCGGTAATCCGTATTTGTT (site AATGTAACTAC) | 0.00716 |
| AATGTAACATGGACCGGTTTTCCCGGTAATCCGTATTTGTT (site AATGTAACTAG) | 0.466 |
| AATGTAACATGGACCGGTTTTCCCGGTAATCCGTATTTGTT (site AATGTAACTAT) | 0.0338 |
| AATGTACCATGGACCGGTTTTCCCGGTAATCCGTATTTGCT (site AATGTAACTAG) | 0 |
| AATGTACCATGGACCGGTTTTCCCGGTAATCCGTATTTGCT (site AATGTACCTAG) | 0 |
| AATGTACCATGGACCGGTTTTCCCGGTAATCCGTATTTGCT (site AATGTAGCTAG) | 0.00499 |
| AATGTACCATGGACCGGTTTTCCCGGTAATCCGTATTTGCT (site AATGTATCTAG) | 0.926 |
